The NIST ThermoML archive (doi:10.1007/s10765-009-0581-7)
Numbers after ± are expanded uncertainties.

How the values were obtained:
[1] = for surface tension liquid-gas: Ring tensiometer; for mass density: 101 kPa, Liquid
[2] = xn = mol fraction of the nth substance listed; conditions: x2 = 0; for surface tension liquid-gas: Ring tensiometer; for mass density: 101 kPa, Liquid

Molecule `CC#N` [acetonitrile] has a surface tension liquid-gas ([1]; 278.15 K) of 30.5 ± 0.5 mN/m, a mass density ([1]; 278.15 K) of 793.3 ± 1.9 kg/m3 and a surface tension liquid-gas ([1]; 283.15 K) of 30.1 ± 0.5 mN/m. It also gave a mass density ([1]; 283.15 K) of 788.8 ± 1.9 kg/m3, a surface tension liquid-gas ([1]; 288.15 K) of 29.7 ± 0.5 mN/m and a mass density ([1]; 288.15 K) of 784.3 ± 2 kg/m3. For the same molecule, the surface tension liquid-gas ([1]; 293.15 K) was 29.3 ± 0.5 mN/m, the mass density ([1]; 293.15 K) was 778.3 ± 2 kg/m3 and the surface tension liquid-gas ([1]; 298.15 K) was 28.9 ± 0.5 mN/m. For the same molecule, the mass density ([1]; 298.15 K) was 776.75 ± 2 kg/m3, the surface tension liquid-gas ([1]; 303.15 K) was 28.5 ± 0.4 mN/m and the mass density ([1]; 303.15 K) was 771.5 ± 2 kg/m3. It also gave a surface tension liquid-gas ([1]; 308.15 K) of 28.1 ± 0.4 mN/m, a mass density ([1]; 308.15 K) of 766.3 ± 2.1 kg/m3 and a surface tension liquid-gas ([1]; 313.15 K) of 27.7 ± 0.4 mN/m. For the same molecule, the mass density ([1]; 313.15 K) was 761 ± 2.1 kg/m3.
For `CCCO` [propan-1-ol], the surface tension liquid-gas ([1]; 278.15 K) was 24.9 ± 0.4 mN/m, the mass density ([1]; 278.15 K) was 816.3 ± 1.8 kg/m3 and the surface tension liquid-gas ([1]; 283.15 K) was 24.5 ± 0.4 mN/m. The mass density ([1]; 283.15 K) was 812.4 ± 1.8 kg/m3, the surface tension liquid-gas ([1]; 288.15 K) was 24.1 ± 0.4 mN/m and the mass density ([1]; 288.15 K) was 808.6 ± 1.8 kg/m3. For the same molecule, the surface tension liquid-gas ([1]; 293.15 K) was 23.7 ± 0.4 mN/m, the mass density ([1]; 293.15 K) was 803.61 ± 1.9 kg/m3 and the surface tension liquid-gas ([1]; 298.15 K) was 23.3 ± 0.4 mN/m. The mass density ([1]; 298.15 K) was 799.58 ± 1.9 kg/m3, the surface tension liquid-gas ([1]; 303.15 K) was 22.9 ± 0.4 mN/m and the mass density ([1]; 303.15 K) was 795.48 ± 1.9 kg/m3. It also gave a surface tension liquid-gas ([1]; 308.15 K) of 22.5 ± 0.4 mN/m, a mass density ([1]; 308.15 K) of 792.8 ± 1.9 kg/m3 and a surface tension liquid-gas ([1]; 313.15 K) of 22.2 ± 0.4 mN/m. The mass density ([1]; 313.15 K) was 787.02 ± 1.9 kg/m3.
In the case of `CCCO` [propan-1-ol] + CC#N, the surface tension liquid-gas ([2]; 278.15 K) is reported as 24.9 ± 0.4 mN/m, the mass density ([2]; 278.15 K) is reported as 816.3 ± 1.8 kg/m3 and the surface tension liquid-gas ([2]; 283.15 K) is reported as 24.5 ± 0.4 mN/m. The mass density ([2]; 283.15 K) was 812.4 ± 1.8 kg/m3, the surface tension liquid-gas ([2]; 288.15 K) was 24.1 ± 0.4 mN/m and the mass density ([2]; 288.15 K) was 808.6 ± 1.8 kg/m3. The surface tension liquid-gas ([2]; 293.15 K) was 23.7 ± 0.4 mN/m, the mass density ([2]; 293.15 K) was 803.61 ± 1.9 kg/m3 and the surface tension liquid-gas ([2]; 298.15 K) was 23.3 ± 0.4 mN/m. It also gave a mass density ([2]; 298.15 K) of 799.58 ± 1.9 kg/m3, a surface tension liquid-gas ([2]; 303.15 K) of 22.9 ± 0.4 mN/m and a mass density ([2]; 303.15 K) of 795.48 ± 1.9 kg/m3. The surface tension liquid-gas ([2]; 308.15 K) was 22.5 ± 0.4 mN/m, the mass density ([2]; 308.15 K) was 792.8 ± 1.9 kg/m3 and the surface tension liquid-gas ([2]; 313.15 K) was 22.2 ± 0.4 mN/m. For the same molecule, the mass density ([2]; 313.15 K) was 787.02 ± 1.9 kg/m3.
